In BindingDB's records for doi:10.1074/jbc.M110.107094 (Sanford-Burnham Medical Research Institute, 2010) one finds IC50 data, which are given here for two compounds.

The IC50 is the concentration that gives 50% inhibition.

Holding throughout (assay): Inhibition Assay
What all share (details): 37 °C

Assay [1] addresses 72 kDa type IV collagenase (Homo sapiens, UniProt P08253). An excerpt:
(§1) Inhibition of IC50 using matrix metalloproteinase.

Assay [2] concerns the target T1, Matrix metalloproteinase-14 [1-20,P8S] (Homo sapiens, UniProt P50281, P8S).
T1 construct: 1-20
Excerpt: as §1

Assay [3] deals with T2, Matrix metalloproteinase-25 (Homo sapiens, UniProt Q9NPA2).
T2 sequence (Q9NPA2 whole entry): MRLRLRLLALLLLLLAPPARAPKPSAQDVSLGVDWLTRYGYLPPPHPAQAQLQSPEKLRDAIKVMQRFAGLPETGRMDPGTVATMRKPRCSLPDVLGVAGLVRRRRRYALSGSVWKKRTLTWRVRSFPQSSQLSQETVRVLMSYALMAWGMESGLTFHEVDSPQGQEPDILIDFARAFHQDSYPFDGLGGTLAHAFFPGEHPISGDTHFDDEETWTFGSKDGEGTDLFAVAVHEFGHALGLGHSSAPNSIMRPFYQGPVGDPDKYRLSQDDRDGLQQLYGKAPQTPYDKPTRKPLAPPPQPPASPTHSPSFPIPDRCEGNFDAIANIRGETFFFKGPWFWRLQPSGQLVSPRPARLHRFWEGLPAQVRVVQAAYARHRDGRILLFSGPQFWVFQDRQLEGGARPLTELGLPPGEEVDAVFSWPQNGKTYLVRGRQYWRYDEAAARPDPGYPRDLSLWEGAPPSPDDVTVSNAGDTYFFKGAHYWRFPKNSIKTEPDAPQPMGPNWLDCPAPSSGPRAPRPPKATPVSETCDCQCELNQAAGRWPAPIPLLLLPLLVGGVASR
Excerpt: as §1

The target of assay [4] is Matrix metalloproteinase-9 (Homo sapiens, UniProt P14780).
Matrix metalloproteinase-9, sequence (P14780 whole entry): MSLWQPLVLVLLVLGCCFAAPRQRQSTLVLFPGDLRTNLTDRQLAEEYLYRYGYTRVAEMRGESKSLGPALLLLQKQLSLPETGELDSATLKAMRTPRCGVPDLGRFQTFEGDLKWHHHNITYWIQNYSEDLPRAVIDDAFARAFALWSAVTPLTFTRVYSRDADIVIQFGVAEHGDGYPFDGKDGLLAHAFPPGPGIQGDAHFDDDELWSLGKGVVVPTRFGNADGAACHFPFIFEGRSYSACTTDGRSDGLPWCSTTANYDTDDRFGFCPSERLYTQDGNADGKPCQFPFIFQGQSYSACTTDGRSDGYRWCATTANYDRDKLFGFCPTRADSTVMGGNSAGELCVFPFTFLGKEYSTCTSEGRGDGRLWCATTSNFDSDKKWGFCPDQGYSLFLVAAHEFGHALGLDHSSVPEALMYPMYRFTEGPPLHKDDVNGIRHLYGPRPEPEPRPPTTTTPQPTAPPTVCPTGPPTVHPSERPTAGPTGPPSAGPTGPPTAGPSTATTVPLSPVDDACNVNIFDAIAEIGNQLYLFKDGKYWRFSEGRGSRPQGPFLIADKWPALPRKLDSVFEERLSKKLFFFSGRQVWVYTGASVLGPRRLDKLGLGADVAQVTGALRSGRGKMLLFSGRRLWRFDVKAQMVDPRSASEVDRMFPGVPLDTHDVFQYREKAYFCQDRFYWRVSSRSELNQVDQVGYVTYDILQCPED
Excerpt: as §1

72 kDa type IV collagenase, sequence (P08253 whole entry): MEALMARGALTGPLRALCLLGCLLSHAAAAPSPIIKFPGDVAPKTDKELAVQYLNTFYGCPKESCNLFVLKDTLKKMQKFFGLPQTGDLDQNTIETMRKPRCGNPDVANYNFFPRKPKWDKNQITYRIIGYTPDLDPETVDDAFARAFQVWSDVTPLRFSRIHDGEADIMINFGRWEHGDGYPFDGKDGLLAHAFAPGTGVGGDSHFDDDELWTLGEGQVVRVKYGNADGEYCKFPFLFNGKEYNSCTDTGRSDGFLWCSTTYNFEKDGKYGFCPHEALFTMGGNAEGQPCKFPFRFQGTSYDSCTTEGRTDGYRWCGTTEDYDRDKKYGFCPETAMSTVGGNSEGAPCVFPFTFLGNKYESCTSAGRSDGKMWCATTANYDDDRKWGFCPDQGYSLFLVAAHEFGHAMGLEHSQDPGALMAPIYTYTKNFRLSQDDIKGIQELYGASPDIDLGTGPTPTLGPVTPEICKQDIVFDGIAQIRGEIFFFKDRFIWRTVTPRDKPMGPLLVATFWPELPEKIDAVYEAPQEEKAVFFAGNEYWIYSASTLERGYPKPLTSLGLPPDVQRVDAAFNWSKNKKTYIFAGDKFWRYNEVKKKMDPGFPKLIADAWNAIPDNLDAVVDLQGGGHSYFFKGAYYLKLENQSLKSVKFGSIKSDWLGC

For `O=C(CCS(=O)(=O)c1ccccc1)NO` [BI-92G11], the IC50 in assay [1] was 1.9 µM; in assay [2], 10.9 µM; in assay [3], 0.9 µM; in assay [4] it was above 50 µM.
Taken in the same sequence, the figures for `CCOc1ccc(-c2ccccc2C(=O)NO)cc1` [BI-102C8] were above 100 µM, above 100 µM, 2.5 µM and above 100 µM.
